This passage reports TGI and GI50 results from PubChem BioAssay (NCI).

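Dose response: 5 concentrations. Exposure: 48 h. Format: 96-well plates. Endpoint: linear interpolation; highest concentration if not reached. GI50 is the concentration that inhibits growth by half. TGI: concentration producing complete growth inhibition.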

A word on the TGI: it is the concentration at which net growth stops. As a reminder, the GI50 is the concentration that inhibits growth by half.

Some test systems named below: M14 melanoma; MALME-3M melanoma; BT-549 breast; SK-MEL-2 melanoma; OVCAR-3 ovarian; HCT-15 colon; LOX IMVI melanoma; MDA-MB-231 breast; KM12 colon; HCT-116 colon; CAKI-1 renal; DU-145 prostate; MDA-N; 786-0 renal; NCI/ADR-RES ovarian; RPMI-8226 leukemia; TK-10 renal; A549 NSCLC; EKVX NSCLC.
Holding throughout (assay): DTP human tumour cell line panel, 48 h

Regarding `CC(=O)O[C@H]1CC[C@H]2[C@@H]3CCc4cc(O)c(I)cc4[C@H]3CC[C@]12C`, the TGI in the assay with M14 melanoma was found to be 27.3 µM; in the assay with MALME-3M melanoma, 37 µM; in the assay with BT-549 breast, 29.4 µM; in the assay with SK-MEL-2 melanoma it was 37.3 µM; with OVCAR-3 ovarian, 31.4 µM; in the assay on HCT-15 colon it was 22.9 µM. The TGI was 30.2 µM in the assay on LOX IMVI melanoma; 12.3 µM with MDA-MB-231 breast; 28.3 µM in the assay on KM12 colon; 29.9 µM in the assay with HCT-116 colon; 29.7 µM in the assay with CAKI-1 renal; 28.7 µM with DU-145 prostate. Further, the TGI in the assay on MDA-N is 31.3 µM; in the assay with 786-0 renal, 27.1 µM; in the assay with NCI/ADR-RES ovarian, 43.2 µM; in the assay on RPMI-8226 leukemia, 41.9 µM; in the assay with TK-10 renal, 33.6 µM; in the assay with A549 NSCLC, 29.5 µM. The TGI in the assay with EKVX NSCLC was 26.8 µM. Moreover, the GI50 in the assay on HCT-116 colon is 16 µM.

Turning to `CC(=O)C1(c2ccccc2)CCN(Cn2sc3nc(C)cc(C)c3c2=O)CC1`, the TGI is 71.6 µM in the assay on M14 melanoma; 41.5 µM in the assay with MALME-3M melanoma; greater than 100 µM in the assay with BT-549 breast; greater than 100 µM in the assay on SK-MEL-2 melanoma; greater than 100 µM with OVCAR-3 ovarian; 72.8 µM in the assay with HCT-15 colon. Besides, the TGI in the assay on LOX IMVI melanoma was 57.8 µM; with MDA-MB-231 breast, greater than 100 µM; in the assay on KM12 colon, greater than 100 µM; in the assay with HCT-116 colon, 52 µM; in the assay on CAKI-1 renal it was greater than 100 µM; with DU-145 prostate, greater than 100 µM. Also, the TGI in the assay with MDA-N was 41 µM; in the assay with 786-0 renal it was 30.6 µM; in the assay on NCI/ADR-RES ovarian, greater than 100 µM; in the assay with RPMI-8226 leukemia, greater than 100 µM; in the assay on TK-10 renal it was 36.1 µM; with A549 NSCLC, greater than 100 µM. The compound also yielded a TGI in the assay with EKVX NSCLC of 58.1 µM.

Take `COC(=O)c1cc(Br)c(C(=O)C(Cl)(Cl)Cl)[nH]1`: the TGI in the assay with M14 melanoma, in the assay on MALME-3M melanoma, with BT-549 breast, with SK-MEL-2 melanoma, in the assay with OVCAR-3 ovarian and with HCT-15 colon was greater than 100 µM in each case. Further, the TGI in the assay with LOX IMVI melanoma, in the assay with MDA-MB-231 breast, with KM12 colon, with HCT-116 colon, with CAKI-1 renal and in the assay with DU-145 prostate was greater than 100 µM throughout. Further, the TGI in the assay with MDA-N, with 786-0 renal, in the assay on NCI/ADR-RES ovarian, in the assay on RPMI-8226 leukemia, with TK-10 renal and in the assay with A549 NSCLC was greater than 100 µM in each case. The TGI with EKVX NSCLC was greater than 100 µM.

For `NCC(=O)C(O)C(O)C(O)CO` (stereo not given), the TGI in the assay with M14 melanoma, with MALME-3M melanoma, in the assay on BT-549 breast, with SK-MEL-2 melanoma, in the assay on OVCAR-3 ovarian and in the assay with HCT-15 colon was greater than 100 µM in each case. Besides, the TGI in the assay on LOX IMVI melanoma, in the assay on MDA-MB-231 breast, with KM12 colon, in the assay on HCT-116 colon, in the assay with CAKI-1 renal and with DU-145 prostate was greater than 100 µM each time. For the same compound, the TGI with MDA-N, in the assay on 786-0 renal, in the assay with NCI/ADR-RES ovarian, in the assay on RPMI-8226 leukemia, in the assay with TK-10 renal and in the assay with A549 NSCLC was greater than 100 µM in each case. The compound further had a TGI in the assay on EKVX NSCLC greater than 100 µM.

As for `NC(=S)SCCC(=O)O`, the TGI in the assay with M14 melanoma, with MALME-3M melanoma, with BT-549 breast, in the assay on SK-MEL-2 melanoma, in the assay on OVCAR-3 ovarian and in the assay on HCT-15 colon was greater than 100 µM each time. For the same compound, the TGI in the assay on LOX IMVI melanoma, in the assay on MDA-MB-231 breast, in the assay on KM12 colon, with HCT-116 colon, in the assay on CAKI-1 renal and in the assay with DU-145 prostate was greater than 100 µM throughout. In addition, the TGI in the assay on MDA-N, in the assay with 786-0 renal, in the assay with NCI/ADR-RES ovarian, in the assay on RPMI-8226 leukemia, in the assay on TK-10 renal and with A549 NSCLC was greater than 100 µM in each case. This compound had a TGI in the assay with EKVX NSCLC greater than 100 µM.

Consider `CNC(=O)Nc1cc2c3c(c1)CCCN3CCC2`, for which the TGI in the assay on M14 melanoma, with MALME-3M melanoma, in the assay with BT-549 breast, with SK-MEL-2 melanoma, in the assay with OVCAR-3 ovarian and in the assay with HCT-15 colon was greater than 10 µM in each case. For the same compound, the TGI in the assay with LOX IMVI melanoma, in the assay on MDA-MB-231 breast, in the assay with KM12 colon, in the assay on HCT-116 colon, in the assay on CAKI-1 renal and with DU-145 prostate was greater than 10 µM each time. Besides, the TGI in the assay on MDA-N, in the assay on 786-0 renal, with NCI/ADR-RES ovarian, in the assay on RPMI-8226 leukemia, in the assay on TK-10 renal and in the assay on A549 NSCLC was greater than 10 µM each time. Besides, in the assay on EKVX NSCLC, the TGI is greater than 10 µM.
